# Source: PubChem BioAssay AID1963854 (Molecular Pharmacology Branch, DTP, NCI, 2024)
# Test system: 186277-243-T-J2-PDC complex spheroid viability
# Assay: Anticancer human tumor 186277-243-T-J2-PDC patient-derived colon adenocarcinoma cell line growth inhibition [POLQ]
# Details: for IC50: curve of first compound; for viability, T/C: stronger effect = lower value
# In short: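 Growth inhibition in 3D: complex spheroids (tumor PDC, HUVEC, MSC) treated with POLQ inhibitor combinations; where Cmax unknown, highest tested concentration 10 microM, except SN-38 at 1 microM.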
# [1] = second compound 0.0316 µM, first compound 0.0316 µM
# [2] = second compound 0.0316 µM, first compound 0.1 µM
# [3] = second compound 0.0316 µM, first compound 0.316 µM
# [4] = second compound 0.0316 µM, first compound 1 µM
# [5] = second compound 0.0316 µM, first compound 3.16 µM
# [6] = second compound 0.0316 µM, first compound 10 µM
# [7] = second compound 0.1 µM, first compound 0.0316 µM
# [8] = second compound 0.1 µM, first compound 0.1 µM
# [9] = second compound 0.1 µM, first compound 0.316 µM
# [10] = second compound 0.1 µM, first compound 1 µM
# [11] = second compound 0.1 µM, first compound 3.16 µM
# [12] = second compound 0.1 µM, first compound 10 µM
# [13] = second compound 0.316 µM, first compound 0.0316 µM
# [14] = second compound 0.316 µM, first compound 0.1 µM
# [15] = second compound 0.316 µM, first compound 0.316 µM
# [16] = second compound 0.316 µM, first compound 1 µM
# [17] = second compound 0.316 µM, first compound 3.16 µM
# [18] = second compound 0.316 µM, first compound 10 µM
# [19] = second compound 1 µM, first compound 0.0316 µM
# [20] = second compound 1 µM, first compound 0.1 µM
# [21] = second compound 1 µM, first compound 0.316 µM
# [22] = second compound 1 µM, first compound 1 µM
# [23] = second compound 1 µM, first compound 3.16 µM
# [24] = second compound 1 µM, first compound 10 µM
# [25] = second compound 3.16 µM, first compound 0.0316 µM
# [26] = second compound 3.16 µM, first compound 0.1 µM
# [27] = second compound 3.16 µM, first compound 0.316 µM
# [28] = second compound 3.16 µM, first compound 1 µM
# [29] = second compound 3.16 µM, first compound 3.16 µM
# [30] = second compound 3.16 µM, first compound 10 µM
# [31] = second compound 10 µM, first compound 0.0316 µM
# [32] = second compound 10 µM, first compound 0.1 µM
# [33] = second compound 10 µM, first compound 0.316 µM
# [34] = second compound 10 µM, first compound 1 µM
# [35] = second compound 10 µM, first compound 3.16 µM
# [36] = second compound 10 µM, first compound 10 µM
# 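Also: spheroids exposed to compounds for seven days.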
# 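For viability, T/C in this document: 100% = DMSO vehicle control viability.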
compound,measurement,setting,value
C=CC(=O)N1CCN(c2nc(=O)n(-c3c(C)ccnc3C(C)C)c3nc(-c4c(O)cccc4F)c(F)cc23)C(C)C1 (stereo unspecified) + Cc1cccc(N(C)C(=O)C2C(O)CCN2c2nc(C)cc(C(F)(F)F)c2C#N)c1,IC50,second compound 0.0316 µM,> 10 µM
same,IC50,second compound 0.1 µM,> 10 µM
same,IC50,second compound 0.316 µM,> 10 µM
same,IC50,second compound 1 µM,> 10 µM
same,IC50,second compound 3.16 µM,> 10 µM
same,IC50,second compound 10 µM,> 10 µM
same,"viability, T/C",[1],92.8%
same,"viability, T/C",[2],101%
same,"viability, T/C",[3],82.2%
same,"viability, T/C",[4],90.9%
same,"viability, T/C",[5],99.5%
same,"viability, T/C",[6],103%
same,"viability, T/C",[7],106%
same,"viability, T/C",[8],98.6%
same,"viability, T/C",[9],103%
same,"viability, T/C",[10],84.7%
same,"viability, T/C",[11],107%
same,"viability, T/C",[12],104%
same,"viability, T/C",[13],90.4%
same,"viability, T/C",[14],91.5%
same,"viability, T/C",[15],102%
same,"viability, T/C",[16],99.5%
same,"viability, T/C",[17],112%
same,"viability, T/C",[18],102%
same,"viability, T/C",[19],99.8%
same,"viability, T/C",[20],108%
same,"viability, T/C",[21],98.6%
same,"viability, T/C",[22],96.2%
same,"viability, T/C",[23],108%
same,"viability, T/C",[24],101%
same,"viability, T/C",[25],106%
same,"viability, T/C",[26],99%
same,"viability, T/C",[27],84%
same,"viability, T/C",[28],106%
same,"viability, T/C",[29],111%
same,"viability, T/C",[30],103%
same,"viability, T/C",[31],97.9%
same,"viability, T/C",[32],106%
same,"viability, T/C",[33],108%
same,"viability, T/C",[34],102%
same,"viability, T/C",[35],97.3%
same,"viability, T/C",[36],95.9%
COc1cccc(OCCCN)c1-c1cc(Nc2cnc(C#N)cn2)n[nH]1 + COC1C(OC(N)=O)C(O)C(Oc2ccc3c(O)c(NC(=O)c4ccc(O)c(CC=C(C)C)c4)c(=O)oc3c2C)OC1(C)C,IC50,second compound 0.0316 µM,< 0.00316 µM
same,IC50,second compound 0.1 µM,< 0.00316 µM
same,IC50,second compound 0.316 µM,< 0.00316 µM
same,IC50,second compound 1 µM,< 0.00316 µM
same,IC50,second compound 3.16 µM,< 0.00316 µM
same,IC50,second compound 10 µM,< 0.00316 µM
same,"viability, T/C","second compound 0.0316 µM, first compound 0.00316 µM",8.14%
same,"viability, T/C","second compound 0.0316 µM, first compound 0.01 µM",5.13%
same,"viability, T/C",[1],4.48%
same,"viability, T/C",[2],4.86%
same,"viability, T/C",[3],4.49%
same,"viability, T/C",[4],5.84%
same,"viability, T/C","second compound 0.1 µM, first compound 0.00316 µM",9.53%
same,"viability, T/C","second compound 0.1 µM, first compound 0.01 µM",5.58%
same,"viability, T/C",[7],4.93%
same,"viability, T/C",[8],4.32%
same,"viability, T/C",[9],4.26%
same,"viability, T/C",[10],5.58%
same,"viability, T/C","second compound 0.316 µM, first compound 0.00316 µM",9.04%
same,"viability, T/C","second compound 0.316 µM, first compound 0.01 µM",5.2%
same,"viability, T/C",[13],5.3%
same,"viability, T/C",[14],4.89%
same,"viability, T/C",[15],4.61%
same,"viability, T/C",[16],5.48%
same,"viability, T/C","second compound 1 µM, first compound 0.00316 µM",8.31%
same,"viability, T/C","second compound 1 µM, first compound 0.01 µM",6.44%
same,"viability, T/C",[19],4.79%
same,"viability, T/C",[20],4.46%
same,"viability, T/C",[21],4.72%
same,"viability, T/C",[22],5.47%
same,"viability, T/C","second compound 3.16 µM, first compound 0.00316 µM",7.66%
same,"viability, T/C","second compound 3.16 µM, first compound 0.01 µM",5.09%
same,"viability, T/C",[25],4.84%
same,"viability, T/C",[26],4.62%
same,"viability, T/C",[27],4.32%
same,"viability, T/C",[28],5.85%
same,"viability, T/C","second compound 10 µM, first compound 0.00316 µM",6.16%
same,"viability, T/C","second compound 10 µM, first compound 0.01 µM",5.21%
same,"viability, T/C",[31],4.7%
same,"viability, T/C",[32],4.65%
same,"viability, T/C",[33],5.39%
same,"viability, T/C",[34],6.57%
CCc1cc2c(N3CCc4c(cc(Cn5ccnc5)cc4-c4cn(C)nc4C(F)(F)F)C3=O)ccnc2c(OC)n1 + Cc1cccc(N(C)C(=O)C2C(O)CCN2c2nc(C)cc(C(F)(F)F)c2C#N)c1,IC50,second compound 0.0316 µM,> 10 µM
same,IC50,second compound 0.1 µM,> 10 µM
same,IC50,second compound 0.316 µM,> 10 µM
same,IC50,second compound 1 µM,> 10 µM
same,IC50,second compound 3.16 µM,> 10 µM
same,IC50,second compound 10 µM,> 10 µM
same,"viability, T/C",[1],96.1%
same,"viability, T/C",[2],82.8%
same,"viability, T/C",[3],96.2%
same,"viability, T/C",[4],96.2%
same,"viability, T/C",[5],106%
same,"viability, T/C",[6],100%
same,"viability, T/C",[7],90.7%
same,"viability, T/C",[8],98.5%
same,"viability, T/C",[9],107%
same,"viability, T/C",[10],88.6%
same,"viability, T/C",[11],112%
same,"viability, T/C",[12],103%
same,"viability, T/C",[13],96.7%
same,"viability, T/C",[14],95.2%
same,"viability, T/C",[15],97.2%
same,"viability, T/C",[16],106%
same,"viability, T/C",[17],109%
same,"viability, T/C",[18],107%
same,"viability, T/C",[19],102%
same,"viability, T/C",[20],127%
same,"viability, T/C",[21],107%
same,"viability, T/C",[22],100%
same,"viability, T/C",[23],93.6%
same,"viability, T/C",[24],102%
same,"viability, T/C",[25],93.8%
same,"viability, T/C",[26],97.3%
same,"viability, T/C",[27],100%
same,"viability, T/C",[28],118%
same,"viability, T/C",[29],119%
same,"viability, T/C",[30],106%
same,"viability, T/C",[31],114%
same,"viability, T/C",[32],94.7%
same,"viability, T/C",[33],111%
same,"viability, T/C",[34],96.8%
same,"viability, T/C",[35],108%
same,"viability, T/C",[36],109%
